Patent publication US5428019A, “Bombesin analogs” (Merrell Dow Pharmaceuticals Inc., priority 1994, dated 1995)
Read-outs that look alike come from different tables or passages of the source. Where a SMILES comes first, the peptide text is derived from it. [ ]: non-standard residue; d: D form. The star is where a group is joined. Pheψ(CH2S)LeuNH2 = CC(C)C[C@H](SC[C@H](Cc1ccccc1)N*)C(N)=O; X2 = CC(C)C[C@@H](CN[C@@H](CC(C)C)C(N)=O)N*; Palmitoyl = CCCCCCCCCCCCCCCC(=O)*; pGlu = O=C1CC[C@@H](C(=O)O)N1; Lauroyl = CCCCCCCCCCCC(=O)*; Octanoyl = CCCCCCCC(=O)*

What was measured:
[1] = target: T1, bombesin/GRP receptor (Mus musculus, UniProt P21729); assay: Competition for 125I-GRP binding to murine pancreatic membranes
T1 construct: The pancreata from one or more mice were pooled and homogenized; from tissue; host or cells: mouse pancreas membranes
Protocol: The pancreata from one or more mice were pooled and homogenized in 50 mM HEPES (pH 7.4) containing 120 mM NaCl, 5 mM KCl, 1 mM EDTA and protease inhibitors (1 μg/ml aprotinin, leupeptin, pepstatin; 4 μg/ml bacitracin, antipain, bestatin; 100 μM PMSF) at 4° C. and centrifuged at 37,500 X g for 15 minutes. The pellet was resuspended in 50 mM HEPES (pH 7.4) containing 10 mM EDTA, 300 mM KCl, and protease inhibitors, and then incubated for 30 minutes at 4° C. The suspension was centrifuged as above and the pellet was washed two times in 50 mM HEPES (pH 7.4) containing 8 μg/ml thiorphan and protease inhibitors, and again centrifuged. The tissue was then resuspended in incubation buffer (1 ml per 4 mg pancreas) and incubated for 15 minutes at room temperature, then 250 μl were added to each assay tube to commence the assay. […] The assay was allowed to proceed to equilibrium for 90 minutes at room temperature. After this time, the contents of each tube was rapidly filtered over Whatman GF/B filters presoaked in 0.1% polyethyleneimine and the filters were rapidly washed three times with ice-cold 50 mM HEPES (pH 7.4). Filter-bound radioactivity was quantitated in a gamma counter. […] Affinity and maximal binding were calculated with LIGAND (Biosoft, Cambridge, UK) (FIGS. 1 and FIG. 2)
The abscissa (x-axis) logarithmically indicates the concentration of agonists being tested.

[2] = target: T2, Bombesin Receptor (Mus musculus, UniProt P21729); assay: Phosphatidylinositol turnover in chopped mouse pancreas; type: cell-based; parameters: key to PI Turnover Agonist: (+) represents agonist activity; (-) indicates no agonist activity; settings: for PI Turnover % Inhibition: antagonist activity, referenced to the stimulation produced by 100 nM GRP
T2 construct: Pancreata from mice were chopped at 350 μm with a tissue chopper and pooled; from tissue; host or cells: chopped mouse pancreas
Protocol: Pancreata from mice were chopped at 350 μm with a tissue chopper and pooled. The chopped tissue was washed twice with oxygenated Krebs-Hepes, then incubated for 30 minutes in 37° C. oxygenated Krebs-Hepes buffer with fresh buffer after 15 minutes. The tissue was then incubated in this buffer containing 200 μCi of [^3 H] inositol at 37° C. for 1 hour. The tissue was then washed twice and incubated for another 30 minutes in oxygenated Krebs-Hepes (containing 10 mM Li^+) at 37° C. with a fresh buffer change after 15 minutes. Portions of the tissue mass (approximately 10 mg per assay tube) were then placed in Li^+ buffer with protease inhibitors, (40 μg/ml bacitracin, 4 μg/ml leupeptin, 4 μg/ml chymostatin, 8 μg/ml thiorphan), 0.1% BSA, and 0.1-10 μM peptide in a final volume of 250 μl. After 60 minutes at room temperature, the phosphatidylinositol turnover was terminated by the addition of 940 μl chloroform:methanol (1:2), followed by 310 μl chloroform, followed by 310 μl water. Each tube was then vortexed for 5 seconds and then centrifuged at 2500 x g for 10 minutes to separate the phases. 50 μl of the bottom phase (chloroform) was withdrawn from each tube and placed in a counting vial, dried, and counted in scintillation fluid. 900 μl of the top (aqueous) phase were then mixed with 2.1 ml water and loaded onto a 0.5 ml Biorad AG-1X8 (formate) ion exchange column. The material on the columns was washed in order with: 1) 10 ml of water 2) 5 ml of 5 mM disodium tetraborate/60 mM sodium formate 3) 10 ml of 1 M ammonium formate in 0.1 M formic acid. The final (third) wash was collected and one ml was mixed with 14 ml of Bio-Safe scintillant and counted. The ratio of these counts (total inositol phosphates) to the corresponding organic phase counts (inositol incorporated into the tissue) was then calculated for each sample. The ratios in the presence of test compound and/or standards were then compared to the ratios for control tubes (i.e., no stimulating agonist). The abilities of test compounds to stimulate phosphatidyl-inositol turnover were determined with the aid of a computer program. […] The ordinate (y-axis) indicates the observed PI turnover as a percentage of control. Values are mean±standard error of triplicate determinations.

[3] = competitive binding, mouse pancreas, averages of multiple experiments, read-out: Kd

T2 sequence (P21729 whole entry): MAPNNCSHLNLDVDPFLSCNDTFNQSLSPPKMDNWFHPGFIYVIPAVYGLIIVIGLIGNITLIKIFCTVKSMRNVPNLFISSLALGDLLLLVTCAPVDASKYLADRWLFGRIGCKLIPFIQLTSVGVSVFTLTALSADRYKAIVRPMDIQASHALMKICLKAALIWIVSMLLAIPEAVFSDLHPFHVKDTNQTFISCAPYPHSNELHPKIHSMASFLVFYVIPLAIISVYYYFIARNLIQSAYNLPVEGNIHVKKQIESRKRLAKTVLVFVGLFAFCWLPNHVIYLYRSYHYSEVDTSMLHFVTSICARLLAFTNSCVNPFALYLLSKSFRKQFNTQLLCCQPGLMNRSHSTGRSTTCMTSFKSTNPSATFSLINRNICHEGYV
T1 sequence (P21729 whole entry): as above

Kd [1, 3] | PI Turnover % Inhibition [2] | SMILES | other results
8 nM |  | CC(C)C[C@@H](CN[C@@H](CC(C)C)C(N)=O)NC(=O)[C@H](Cc1cnc[nH]1)NC(=O)CNC(=O)[C@@H](NC(=O)[C@H](C)NC(=O)[C@H](Cc1c[nH]c2ccccc12)NC(=O)[C@H](CCC(N)=O)NC(=O)[C@H](CC(N)=O)NC(=O)CNC(=O)[C@H](CC(C)C)NC(=O)[C@H](CCCN=C(N)N)NC(=O)[C@H](CCC(N)=O)NC(=O)[C@@H]1CCC(=O)N1)C(C)C [[Leu^13 .psi.{CH2 NH]Leu^14]bombesin, pGlu--Gln--Arg--Leu--Gly--Asn--Gln--Trp--Ala--Val--Gly--His--Leu.psi.[CH2 N]Leu--NH2, reference compound] ([pGlu]QRLGNQWAVGH-X2) | 
1 nM |  | CC(C)C[C@@H](C(N)=O)[S+]([O-])C[C@H](Cc1ccccc1)NC(=O)[C@H](Cc1c[nH]cn1)NC(=O)CNC(=O)[C@@H](NC(=O)[C@H](C)NC(=O)[C@H](Cc1c[nH]c2ccccc12)NC(=O)[C@H](CCC(N)=O)NC(=O)[C@@H]1CCC(=O)N1)C(C)C (single isomer, unassigned) [[Phe^8 .psi.[CH2 S(O)]Leu^9]litorin II, pGlu--Gln--Trp--Ala--Val--Gly--His--Phe.psi.[CH2 S(O)]Leu--NH2] | 
 | 53% | CCCCCCCCCCCC(=O)N[C@@H](CCC(N)=O)C(=O)N[C@@H](Cc1c[nH]c2ccccc12)C(=O)N[C@@H](C)C(=O)N[C@H](C(=O)N[C@H](C)C(=O)N[C@@H](Cc1c[nH]cn1)C(=O)N[C@@H](CC(C)C)C(N)=O)C(C)C [Lauryl[D-Ala^11]bombesin(7-13)amide, Nα-lauryl-Gln--Trp--Ala--Val-D-Ala--His--Leu--NH2] (Lauroyl-QWAV[dA]HL-NH2) | 
 | 45% | CCCCCCCCCCCCCCCC(=O)N[C@@H](CCC(N)=O)C(=O)N[C@@H](Cc1c[nH]c2ccccc12)C(=O)N[C@@H](C)C(=O)N[C@H](C(=O)N[C@H](C)C(=O)N[C@@H](Cc1c[nH]cn1)C(=O)N[C@@H](CC(C)C)C(N)=O)C(C)C [Palmityl[D-Ala^11]bombesin(7-13)amide, Nα-palmityl-Gln--Trp--Ala--Val-D-Ala--His--Leu--NH2] (Palmitoyl-QWAV[dA]HL-NH2) | 
1.8 nM |  | CC(C)C[C@@H](C(N)=O)[S+]([O-])C[C@H](Cc1ccccc1)NC(=O)[C@H](Cc1c[nH]cn1)NC(=O)CNC(=O)[C@@H](NC(=O)[C@H](C)NC(=O)[C@H](Cc1c[nH]c2ccccc12)NC(=O)[C@H](CCC(N)=O)NC(=O)[C@@H]1CCC(=O)N1)C(C)C (single isomer, unassigned) [[Phe^8 .psi.[CH2 S(O)]Leu^9]litorin I, pGlu--Gln--Trp--Ala--Val--Gly--His--Phe.psi.[CH2 S(O)]Leu--NH2] | 
 | 42% | CC(C)C[C@H](SC[C@H](Cc1ccccc1)NC(=O)[C@H](Cc1c[nH]cn1)NC(=O)CNC(=O)[C@@H](NC(=O)[C@H](C)NC(=O)[C@H](Cc1c[nH]c2ccccc12)NC(=O)[C@H](CCC(N)=O)NC(=O)[C@@H]1CCC(=O)N1)C(C)C)C(N)=O [[Phe^8 .psi.[CH2 S]Leu^9]litorin, pGlu--Gln--Trp--Ala--Val--Gly--His--Phe.psi.[CH2 S]Leu--NH2] | 
 | 83% | CC(C)C[C@@H](C(N)=O)[S+]([O-])C[C@H](Cc1ccccc1)NC(=O)[C@H](Cc1c[nH]cn1)NC(=O)CNC(=O)[C@@H](NC(=O)[C@H](C)NC(=O)[C@H](Cc1c[nH]c2ccccc12)NC(=O)[C@H](CCC(N)=O)NC(=O)[C@@H]1CCC(=O)N1)C(C)C (single isomer, unassigned) [[Phe^8 .psi.[CH2 S(O)]Leu^9 ]litorin II] [pGlu--Gln--Trp--Ala--Val--Gly--His--Phe.psi.[CH2 S(O)]Leu--NH2] | 

Continued, compound first:

SMILES | Kd [1, 3] | PI Turnover % Inhibition [2] | other results
CCCCCCCC(=O)N[C@@H](CCC(N)=O)C(=O)N[C@@H](Cc1c[nH]c2ccccc12)C(=O)N[C@@H](C)C(=O)N[C@H](C(=O)N[C@H](C)C(=O)N[C@@H](Cc1c[nH]cn1)C(=O)N[C@@H](CC(C)C)C(N)=O)C(C)C [Octanoyl[D-Ala^11]bombesin(7-13)amide, Nα-octyl-Gln--Trp--Ala--Val-D-Ala--His--Leu--NH2] (Octanoyl-QWAV[dA]HL-NH2; N-terminus and C-terminus assumed) |  |  | PI Turnover Agonist [2]: -
CC(C)C[C@@H](CN[C@@H](CC(C)C)C(N)=O)NC(=O)[C@H](Cc1c[nH]cn1)NC(=O)CNC(=O)[C@@H](NC(=O)[C@H](C)NC(=O)[C@H](Cc1c[nH]c2ccccc12)NC(=O)[C@H](CCC(N)=O)NC(=O)[C@H](CC(N)=O)NC(=O)CNC(=O)[C@H](CC(C)C)NC(=O)[C@H](CCCNC(=N)N)NC(=O)[C@H](CCC(N)=O)NC(=O)[C@@H]1CCC(=O)N1)C(C)C [[Leu^13 .psi.{CH2 NH]Leu^14]bombesin, pGlu--Gln--Arg--Leu--Gly--Asn--Gln--Trp--Ala--Val--Gly--His--Leu.psi.[CH2 N]Leu--NH2, reference compound] ([pGlu]QRLGNQWAVGH-X2) |  | 30% | 
CC(=O)N[C@@H](CCC(N)=O)C(=O)N[C@@H](Cc1c[nH]c2ccccc12)C(=O)N[C@@H](C)C(=O)N[C@H](C(=O)N[C@H](C)C(=O)N[C@@H](Cc1c[nH]cn1)C(=O)N[C@@H](CC(C)C)C(N)=O)C(C)C [Acetyl[D-Ala^11]bombesin(7-13)amide, Nα-acetyl-Gln--Trp--Ala--Val-D-Ala--His--Leu--NH2] (Ac-QWAV[dA]HL-NH2) |  | 24% | PI Turnover Agonist [2]: -
CC(C)C[C@H](NC(=O)[C@H](CCCNC(=N)N)NC(=O)[C@H](CCC(N)=O)NC(=O)[C@@H]1CCC(=O)N1)C(=O)NCC(=O)N[C@@H](CC(N)=O)C(=O)N[C@@H](CCC(N)=O)C(=O)N[C@@H](Cc1c[nH]c2ccccc12)C(=O)N[C@@H](C)C(=O)N[C@H](C(=O)NCC(=O)N[C@@H](Cc1c[nH]cn1)C(=O)N[C@H](CS[C@@H](CC(C)C)C(N)=O)Cc1ccccc1)C(C)C [[Phe^13 .psi.[CH2 S]Leu^14 bombesin, pGlu--Gln--Arg--Leu--Gly--Asn--Gln--Trp--Ala--Val--Gly--His--Phe.psi.[CH2 S]Leu--NH2] ([pGlu]QRLGNQWAVGH-{Pheψ(CH2S)LeuNH2}) |  | 54% | Kd ([1]; Kd (nM), competitive binding, mouse pancreas, averages of multiple experiments): 2.8 nM
CSCC[C@H](NC(=O)[C@H](Cc1ccccc1)NC(=O)[C@H](Cc1c[nH]cn1)NC(=O)CNC(=O)[C@@H](NC(=O)[C@H](C)NC(=O)[C@H](Cc1c[nH]c2ccccc12)NC(=O)[C@H](CCC(N)=O)NC(=O)[C@@H]1CCC(=O)N1)C(C)C)C(N)=O [Litorin, pGlu--Gin--Trp--Ala--Val--Gly--His--Phe--Met--NH2, reference compound] | 0.075 nM |  | Kd ([1]; triplicate, in the presence of 40 pM 125I-GRP, LIGAND fit, read-out: Kd, single class of sites (FIG. 2)): 0.1 nM; PI Turnover Agonist [2]: +
CC(C)C[C@@H](C(N)=O)[S+]([O-])C[C@H](Cc1ccccc1)NC(=O)[C@H](Cc1c[nH]cn1)NC(=O)CNC(=O)[C@@H](NC(=O)[C@H](C)NC(=O)[C@H](Cc1c[nH]c2ccccc12)NC(=O)[C@H](CCC(N)=O)NC(=O)[C@@H]1CCC(=O)N1)C(C)C (single isomer, unassigned) [[Phe^8 .psi.[CH2 S(O)]Leu^9 ]litorin I] [pGlu--Gln--Trp--Ala--Val--Gly--His--Phe.psi.[CH2 S(O)]Leu--NH2] |  | 53% | 
